A short description of series [1]: Plasma protein binding assay (rapid equilibrium dialysis). Format: in vitro ADME. A digest of the protocol:
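Rapid equilibrium dialysis ran 4 h at 37° C (300 RPM) with compound-spiked plasma (10,000 ng/mL) on one side and PBS on the other. Each side was then mixed 1:1 […] to equalise matrix before LC-MS/MS quantification.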
Background: Equilibrium dialysis compares concentrations on both sides of a semipermeable membrane.

Series [2] deals with M. abscessus subsp. abscessus K21. Nature of the series: MIC assay, clinical isolate K21. In kind it is cell-based, Mycobacterium abscessus. The conditions noted are these: 90% inhibition of bacterial growth.
Series [3] has as its system CYP3A4. The settings on record: human.
Protocol: The threshold cycle (CT) was measured for each isoform cDNA by real time qRT-PCR. The mRNA level of each isoform was assessed by the relative quantifiation with reference gene (GAPDH) as the normalizer method. The normalized fold induction was calculated by 2^−ΔΔCT method, in which 0.1% DMSO was used as the reference (vehicle control). The induction potential of each test compound was analyzed by comparing its fold induction to a pre-determined cutoff value for each lot of hepatocytes. The hepatocytes lots used in this study were validated using 10 known inducers and 5 known non-inducers for each isozyme. A cutoff value is determined based on the validation study for each hepatocytes lot.
In series [4] the test system is Mycobacterium abscessus. The experiment in a line: MIC against Mycobacterium abscessus (strain not given). In kind it is cell-based.
Series [5] relates to THP-1. Nature of the series: Fold-killing in THP-1. In kind it is cell-based. The settings on record: expressed in log-10 scale.

≈ marks a conversion by molar mass, not a printed value. Where two headings read alike, the source gives them in different places.

With `CO[C@H]1/C=C/O[C@@]2(C)Oc3c(C)c(O)c4c(c3C2=O)C2=NC3(CCN(CC(C)C)CC3)NC2=C(NC(=O)/C(C)=C/C=C/[C@H](C)[C@H](O)[C@@H](C)[C@@H](O)[C@@H](C)[C@H](OC(=O)c2cccnc2)[C@@H]1C)C4=O` [5m, 25-O-(3-pyridinecarbonyl)-25-O-desacetyrifabutin], the “fold increase in the unbound fraction in plasma” value in series [1] (plasma) is “at least 100 fold”. In series [2], the “Mab K21 MIC” value is 0.033 µM.

In turn, `CO[C@H]1/C=C/O[C@@]2(C)Oc3c(C)c(O)c4c(c3C2=O)C2=NC3(CCN(CC(C)C)CC3)NC2=C(NC(=O)/C(C)=C\C=C\[C@H](C)[C@H](O)[C@@H](C)[C@@H](O)[C@@H](C)[C@H](OC(C)=O)[C@@H]1C)C4=O` [rifabutin, reference compound] showed a ƒu in series [1] (4 h, 10000 ng/mL) of 4.5%. In series [1] (plasma), this molecule had a fraction unbound at 4 h, 10000 ng/mL of 0.0376. Further, the “plasma unbound (ƒu, %)” value in series [1] (plasma, 4 h, 10000 ng/mL) is given as 3.8%. In series [1] (plasma, 4 h, 10000 ng/mL), this molecule had an unbound fraction of 3.76%. Also, in series [3], the “CYP3A4 gene fold-induction at 10 μM” value worked out at 40.0. In addition, the MIC worked out at 1.15 µM (≈ 0.974 µg/mL) in series [4] (Mycobacteroides abscessus, 72 h, Table 22, read-out: MICMab); 1.1 µM (≈ 0.932 µg/mL) in series [4] (Mycobacteroides abscessus, Table 13, read-out: Mab MIC); 1.1 µM (≈ 0.932 µg/mL) in series [4] (Mycobacteroides abscessus, against Mycobacterium abscessus, Table 19, read-out: MIC); 1.1 µM (≈ 0.932 µg/mL) in series [4] (against Mycobacterium abscessus, Table 20, read-out: MIC). The “Fold-killing in THP-1” value in series [5] is recorded as 2.3.

In general, fraction unbound refers to the share of the substance not bound to proteins or other matrix. Read a low fraction unbound as extensive binding.

Values taken from patent publication US20260109712A1, “RIFAMYCINS FOR NONTUBERCULOUS MYCOBACTERIA” (priority 2022, published 2026).
